Experimental findings from US20250195492A1, “USE OF IPTACOPAN FOR THE TREATMENT OF LUPUS NEPHRITIS” (Novartis AG, priority 2022, published 2025) are described below.

For one series, the system named is alternative pathway. Description: Wieslab assay (least sensitive alternative pathway biomarker), FIH trial CLNP023X2101. It is filed as in vivo, human. The conditions noted are these: 200 mg b.i.d. On the procedure:
The study will first investigate the treatment effect of iptacopan 200 mg b.i.d. on top of SoC compared to SoC alone (Part 1). This dose was chosen based on the least sensitive alternative pathway biomarker (Wieslab assay); it ensures >90% target inhibition in more than 70% of individuals, as determined from FIH trial CLNP023X2101. Dose range finding with doses between 10 to 200 mg b.i.d was performed in Phase 2 studies in IgAN, C3G and PNH.

Series [1] can be described thus: Healthy volunteer studies CLNP023X2101 and CLNP023X1102 (SAD and MAD). Type of series: in vivo.
The subject of another series is PNH patients. The series can be described thus: Phase 2 studies in PNH (CLNP023X2201 add-on to eculizumab, CLNP023X2204 monotherapy). It is filed as in vivo, human.
For another series, the system named is patients with IgAN. Description: Phase 2 study in patients with IgAN (CLNP023X2203), interim analysis. It is filed as in vivo, human.
In the next series the test system is patients with C3G. The series can be described thus: Phase 2 study in patients with C3G (CLNP023X2202), interim analysis. The conditions noted are these: 200 mg b.i.d. Type of series: in vivo, human.
Where [2] appears, read: 102 subjects, SAD 10 to 400 mg, MAD 10 to 200 mg b.i.d. for 2 weeks.
[3] abbreviates: 200 mg b.i.d., add-on to eculizumab and monotherapy, majority of patients, preliminary data.
The mark [4] stands for this setting: 200 mg b.i.d. compared to placebo.

Structures are written as SMILES.

As for `CCO[C@H]1CCN(Cc2c(OC)cc(C)c3[nH]ccc23)[C@H](c2ccc(C(=O)O)cc2)C1` [iptacopan, 4-((2S,4S)-(4-ethoxy-1-((5-methoxy-7-methyl-1H-indol-4-yl)methyl)piperidin-2-yl))benzoic acid], in the series with alternative pathway, the “proportion of individuals with >90% target inhibition” value is “more than 70%”. In addition, the “target inhibition (Wieslab assay)” value with alternative pathway (reached in more than 70% of individuals) is on record as more than 90%. For the same compound, in series [1] (setting [2]), the “deaths, SAEs, AEs leading to study drug discontinuation” value is “No deaths, serious adverse events (SAEs), or adverse events (AEs) leading to study drug discontinuation were observed” and the tolerability result is “well tolerated”. For the same compound, the solubility entry in series [1] (as reported from the healthy volunteer studies) was “high”. Moreover, in series [1] (healthy volunteers, SAD/MAD), the absorption entry is “fast”. For the same compound, in the series on PNH patients (setting [3]), the LDH levels entry was “reduction in LDH levels” and the “hemoglobin in the absence of RBC transfusions” value is on record as “improvements in hemoglobin”. Also, in the series on PNH patients (200 mg b.i.d., preliminary data), the hemolysis entry is “control of both intra- and extravascular hemolysis”. In the series with PNH patients (both PNH studies), the safety and tolerability entry is “overall safe and well tolerated”. The safety profile entry in the series with patients with IgAN is on record as “overall well-tolerated safety profile”. For the same compound, in the series with patients with IgAN (setting [4]), the UPCR result is listed as “clinically meaningful UPCR reduction” and the eGFR levels result is recorded as “stable/improving”. The “dose-response effect on UPCR” value with patients with IgAN (at 90 days, primary endpoint) is given as “statistically significant dose-response effect”. Moreover, in the series on patients with C3G, the tolerability entry was “well-tolerated”. In the series on patients with C3G (at 12 weeks), the eGFR entry was “stabilization” and the “reduction in UPCR” value is on record as 49%.
